Source: PubChem BioAssay (NCI)
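Dose response: 5 concentrations. Exposure: 48 h. Format: 96-well plates. Endpoint: linear interpolation; highest concentration if not reached. GI50 is the concentration that inhibits growth by half. Definition used: TGI = concentration required for complete inhibition of growth.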 Where a SMILES comes first, the peptide text is derived from it. [ ]: non-standard residue; d: D form. The star is where a group is joined. Phe(4-NO2) = N[CH](Cc1ccc([N+](=O)[O-])cc1)C(=O)O; Boc = CC(C)(C)OC(=O)*

What was measured:
Assay in all cases: DTP human tumour cell line panel, 48 h
[1] = test system: UO-31 renal
[2] = test system: SW-620 colon
[3] = test system: EKVX NSCLC
[4] = test system: IGROV1 ovarian
[5] = test system: MDA-MB-435
[6] = test system: PC-3 prostate
[7] = test system: MDA-N
[8] = test system: RPMI-8226 leukemia
[9] = test system: K-562 leukemia
[10] = test system: MDA-MB-231 breast

Row | Compound | TGI [1] | TGI [2] | TGI [3] | TGI [4] | TGI [5] | TGI [6] | TGI [7] | TGI [8] | TGI [9] | TGI [10] | GI50 [1] | GI50 [2] | GI50 [3] | GI50 [4] | GI50 [5] | GI50 [6] | GI50 [10] | GI50 [8] | GI50 [9]
1 | O=c1[nH]nc(-c2ccccc2)c2[nH]c3c(c12)Cc1ccccc1-3 | > 100 µM | > 100 µM | > 100 µM | > 100 µM | 37.3 µM | > 100 µM | > 27.4 µM | > 28.4 µM | > 100 µM |  |  |  |  |  |  |  |  |  | 
2 | O=c1[nH]cc(N=Cc2cc(Cl)ccc2O)c(=O)[nH]1 | > 100 µM |  | > 100 µM | 52.6 µM | > 100 µM | > 100 µM | > 100 µM | 53.3 µM | > 100 µM | > 100 µM |  |  |  |  |  |  |  |  | 
3 | Cc1ccc(-n2nncc2[Si](C)(C)C)s1 | > 100 µM | > 100 µM |  |  | > 100 µM | > 100 µM | > 100 µM | > 100 µM | > 100 µM | > 100 µM |  |  |  |  |  |  |  |  | 
4 | Cc1nc2ccc(Br)cc2c(=O)n1-c1ccc(N)cc1 | > 100 µM | > 100 µM | > 100 µM | > 100 µM | > 100 µM | > 100 µM | > 100 µM |  | > 100 µM | > 100 µM |  |  |  |  |  |  |  |  | 
5 | CCOC(=O)c1c(N2CCCC2)[nH]c(=O)c(C(c2ccc(N(C)C)cc2)c2c(O)c(C(=O)OCC)c(N3CCCC3)[nH]c2=O)c1O | > 100 µM | > 100 µM | > 100 µM |  | > 100 µM | > 100 µM | > 100 µM | > 100 µM | > 100 µM | > 100 µM |  |  |  |  |  |  |  |  | 
6 | COc1ccc(/C=C2\CCCc3ccccc3C2=O)cc1 | > 100 µM | > 100 µM | > 100 µM | > 100 µM | 53.1 µM | > 100 µM |  | 21.5 µM | > 100 µM | 42.1 µM |  |  |  |  |  |  |  |  | 
7 | Cc1cc(C)c2c(c1)C/C(=C\c1cccc(C)c1C(=O)O)C2=O | > 100 µM | > 100 µM | > 100 µM | > 100 µM |  | > 100 µM | > 100 µM | > 100 µM | > 100 µM | > 100 µM |  |  |  |  |  |  |  |  | 
8 | CCOc1ccc2nc3nc(=O)[nH]c(C)c3c(NC(C)(CO)CO)c2c1 | > 100 µM | > 100 µM | > 100 µM | > 100 µM | > 100 µM | > 100 µM | > 100 µM |  | > 100 µM | > 100 µM |  |  |  |  |  |  |  |  | 
9 | C/C(=N\Nc1nc2ccccc2[nH]1)c1ncccn1 |  | > 100 µM | 25.8 µM | 9.41 µM |  | > 66 µM | > 100 µM |  | > 100 µM | > 29.2 µM |  |  |  |  |  |  |  |  | 
10 | [N-]=[N+]=Nc1nc2ccccc2c(N=[N+]=[N-])c1Cl | > 100 µM | > 100 µM |  | > 100 µM | > 100 µM | > 100 µM | > 100 µM | > 100 µM | > 100 µM | > 100 µM |  |  |  |  |  |  |  |  | 
11 | N/N=C(/N)SCCCCCCCCCCS/C(N)=N/N | 78.9 µM | 36.6 µM | > 100 µM | 69.9 µM | > 100 µM | > 100 µM |  | 70.8 µM | 32.3 µM | 85.2 µM |  |  |  |  |  |  |  |  | 
12 | O=C(Nc1ccc(-n2cc(-c3ccncc3)c(-c3ccc(O)c(Cl)c3)n2)cc1)c1ccc(Cl)c(C(F)(F)F)c1 | 28.3 µM | > 50 µM | > 50 µM | > 50 µM | 39.4 µM | > 50 µM |  | 2.52 µM | > 50 µM | 1.56 µM | 2.65 µM | 2.38 µM | 4.83 µM | 15.6 µM | 2.06 µM | 1.37 µM | 0.735 µM | 0.65 µM | 1.37 µM
13 | Cn1c2ccccc2n2c3ncccc3c(=O)cc12 | > 100 µM | > 100 µM | > 100 µM | > 100 µM | > 100 µM |  | > 100 µM | > 100 µM | > 100 µM | > 100 µM |  |  |  |  |  |  |  |  | 
14 | Oc1c(Cl)cc2cc1-c1cc(cc(Cl)c1O)CCc1c(cc(Cl)c(O)c1Cl)-c1cc(Cl)c(c(Cl)c1O)/C=C\2 |  | 31.5 µM |  | 18.3 µM | 21.7 µM | 20.3 µM |  | > 50 µM | > 50 µM |  |  |  |  |  |  |  |  |  | 
15 | COc1cc(S(=O)(=O)Nc2ccc(-c3csc(N4C(=O)C(Cl)C4c4ccccc4O)n3)cc2)ccc1Cl (centres undefined) | > 100 µM | > 100 µM | > 100 µM | 56.3 µM | > 100 µM | > 100 µM | > 100 µM | 83.9 µM | > 100 µM |  |  |  |  |  |  |  |  |  | 
16 | Cc1cc2c(c(C(=O)NCC(=O)O)c1)Oc1c(cc(C)cc1C(=O)NCC(=O)O)S2 |  | > 100 µM | > 100 µM | > 100 µM | > 100 µM | > 100 µM | > 100 µM | > 100 µM | > 100 µM | > 100 µM |  |  |  |  |  |  |  |  | 
17 | O=CC(O)C(O)C(O)C(O)COC(=O)NCCCCC(=O)C(F)(F)C(F)(F)C(F)(F)C(F)(F)C(F)(F)C(F)(F)C(F)(F)F (centres undefined) | > 100 µM | 42.1 µM |  | > 100 µM | 62.4 µM | 41.5 µM | 73.5 µM | > 100 µM | 58.5 µM | 47.6 µM |  |  |  |  |  |  |  |  | 
18 | CCOC(=O)CCC(NC(=O)C(Cc1ccc([N+](=O)[O-])cc1)NC(=O)OC(C)(C)C)C(=O)NC(CCC(=O)OCC)C(=O)OCC (centres undefined) (Boc-[Phe(4-NO2)]-Glu(OEt)-Glu(OEt)-OEt; configuration not given here) | > 100 µM | 40.2 µM |  | 38.3 µM |  | 39.5 µM | 52.6 µM | 43.3 µM |  | > 100 µM |  |  |  |  |  |  |  |  | 
19 | C=CC(C)(C)/C=C/c1ccc(O)cc1 |  | > 100 µM | > 100 µM | > 100 µM | > 100 µM | 89.4 µM | > 100 µM | 70.1 µM |  | > 100 µM |  |  |  |  |  |  |  |  | 
20 | C/C(=C\Cc1ccc(F)cc1)CCCCCC/C(C)=C/Cc1ccc(F)cc1 | 23.1 µM | 48.6 µM | 37.2 µM | 26.7 µM | 39 µM | 33.3 µM | 34.2 µM |  | 28.5 µM | 37.9 µM |  |  |  |  |  |  |  |  | 
21 | Oc1ccc2ccccc2c1OCc1nnc(CCCCCCCCc2nnc(COc3c(O)ccc4ccccc34)n2Nc2ccccc2)n1Nc1ccccc1 | > 82 µM | > 100 µM | > 76.8 µM | > 81.8 µM | 31.8 µM | > 100 µM |  | > 100 µM | > 100 µM | 61.1 µM |  |  |  |  |  |  |  |  | 
